Measured values as given in PubChem BioAssay (NCI).
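Protocol summary: plate cells (96-well), add compound at 5 concentrations, incubate 48 h, interpolate endpoints linearly. GI50 is the concentration that inhibits growth by half. TGI: concentration producing complete growth inhibition.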

Experiments:
Test in all cases: NCI-60 cell line screen, 48 h
UACC-257 melanoma = system: UACC-257 melanoma
NCI-H226 lung = system: NCI-H226 lung
SN12C renal = system: SN12C renal
A549 NSCLC = system: A549 NSCLC
UACC-62 melanoma = system: UACC-62 melanoma
SF-539 CNS = system: SF-539 CNS
TK-10 renal = system: TK-10 renal
SK-MEL-28 melanoma = system: SK-MEL-28 melanoma
NCI-H460 lung = system: NCI-H460 lung
MALME-3M melanoma = system: MALME-3M melanoma
M14 melanoma = system: M14 melanoma
COLO 205 colon = system: COLO 205 colon
EKVX NSCLC = system: EKVX NSCLC
SK-MEL-5 melanoma = system: SK-MEL-5 melanoma
SW-620 colon = system: SW-620 colon
UO-31 renal = system: UO-31 renal
OVCAR-5 ovarian = system: OVCAR-5 ovarian
DU-145 prostate = system: DU-145 prostate
HCT-15 colon = system: HCT-15 colon
786-0 renal = system: 786-0 renal
HCC-2998 colon = system: HCC-2998 colon
MDA-N = system: MDA-N
HCT-116 colon = system: HCT-116 colon
U251 CNS = system: U251 CNS
MDA-MB-231 breast = system: MDA-MB-231 breast
MOLT-4 leukemia = system: MOLT-4 leukemia
OVCAR-8 ovarian = system: OVCAR-8 ovarian
SNB-19 CNS = system: SNB-19 CNS
RXF 393 renal = system: RXF 393 renal
BT-549 breast = system: BT-549 breast
OVCAR-3 ovarian = system: OVCAR-3 ovarian
HS 578T breast = system: HS 578T breast
HOP-92 NSCLC = system: HOP-92 NSCLC
SNB-75 CNS = system: SNB-75 CNS
SF-295 CNS = system: SF-295 CNS
K-562 leukemia = system: K-562 leukemia
MDA-MB-435 = system: MDA-MB-435
NCI-H23 lung = system: NCI-H23 lung
KM12 colon = system: KM12 colon
PC-3 prostate = system: PC-3 prostate
NCI-H522 lung = system: NCI-H522 lung
MCF7 breast = system: MCF7 breast
HL-60(TB) leukemia = system: HL-60(TB) leukemia
SF-268 CNS = system: SF-268 CNS
NCI/ADR-RES ovarian = system: NCI/ADR-RES ovarian
SK-MEL-2 melanoma = system: SK-MEL-2 melanoma
SK-OV-3 ovarian = system: SK-OV-3 ovarian
ACHN renal = system: ACHN renal
HOP-62 NSCLC = system: HOP-62 NSCLC
A498 renal = system: A498 renal
CAKI-1 renal = system: CAKI-1 renal
SR leukemia = system: SR leukemia
OVCAR-4 ovarian = system: OVCAR-4 ovarian
HT29 colon = system: HT29 colon
LOX IMVI melanoma = system: LOX IMVI melanoma
CCRF-CEM leukemia = system: CCRF-CEM leukemia
RPMI-8226 leukemia = system: RPMI-8226 leukemia
IGROV1 ovarian = system: IGROV1 ovarian
T-47D breast = system: T-47D breast

## CN(C)CCOc1ccc2[nH]c(C(=O)N3CC(CCl)c4c3cc(NC(=O)OCc3ccc([N+](=O)[O-])cc3)c3ccccc43)cc2c1 (stereo unspecified)
UACC-257 melanoma
  TGI: > 100 µM
NCI-H226 lung
  TGI: 3.72 µM
SN12C renal
  TGI: 2.95 µM
A549 NSCLC
  TGI: 2.52 µM
UACC-62 melanoma
  TGI: 5.36 µM
SF-539 CNS
  TGI: 2.99 µM
TK-10 renal
  TGI: > 100 µM
SK-MEL-28 melanoma
  TGI: 3.06 µM
NCI-H460 lung
  TGI: > 100 µM
MALME-3M melanoma
  TGI: 2.86 µM
M14 melanoma
  TGI: 2.88 µM
COLO 205 colon
  TGI: 3.29 µM
EKVX NSCLC
  TGI: 3.14 µM
SK-MEL-5 melanoma
  TGI: 2.76 µM
SW-620 colon
  TGI: 2.61 µM
UO-31 renal
  TGI: 2.56 µM
OVCAR-5 ovarian
  TGI: 2.95 µM
DU-145 prostate
  TGI: 1.9 µM
HCT-15 colon
  TGI: 3.58 µM
786-0 renal
  TGI: 2.09 µM
HCC-2998 colon
  TGI: > 100 µM
MDA-N
  TGI: 2.86 µM
HCT-116 colon
  TGI: 2.17 µM
U251 CNS
  TGI: > 100 µM
MDA-MB-231 breast
  TGI: 3.23 µM

## c1ccc2nc3c(cc2c1)Sc1cc2ccccc2[n+]2c1N3CC2
MOLT-4 leukemia
  GI50: 22.1 µM
  TGI: > 100 µM
UACC-257 melanoma
  GI50: 11.6 µM
  TGI: 34.8 µM
OVCAR-8 ovarian
  GI50: 25.3 µM
  TGI: > 100 µM
NCI-H226 lung
  GI50: 45 µM
  TGI: > 100 µM
SN12C renal
  GI50: 21.5 µM
  TGI: > 100 µM
SNB-19 CNS
  GI50: 19.7 µM
  TGI: 91.9 µM
A549 NSCLC
  GI50: 11.9 µM
  TGI: > 100 µM
RXF 393 renal
  GI50: 13.7 µM
  TGI: 54.9 µM
UACC-62 melanoma
  GI50: 13.5 µM
  TGI: 28.8 µM
BT-549 breast
  GI50: 19.1 µM
  TGI: > 100 µM
OVCAR-3 ovarian
  GI50: 21.2 µM
  TGI: > 100 µM
SF-539 CNS
  GI50: 35.9 µM
  TGI: > 100 µM
TK-10 renal
  GI50: 36.4 µM
  TGI: > 100 µM
HS 578T breast
  GI50: 18.3 µM
  TGI: 85.1 µM
SK-MEL-28 melanoma
  GI50: 20.8 µM
  TGI: 83.9 µM
HOP-92 NSCLC
  GI50: 27.9 µM
  TGI: > 100 µM
NCI-H460 lung
  GI50: 20.3 µM
  TGI: 63.9 µM
SNB-75 CNS
  GI50: 26.9 µM
  TGI: > 100 µM
MALME-3M melanoma
  GI50: 4.17 µM
  TGI: 23.3 µM
SF-295 CNS
  GI50: 65.7 µM
  TGI: > 100 µM
K-562 leukemia
  GI50: 14 µM
  TGI: > 100 µM
MDA-MB-435
  GI50: 21.1 µM
  TGI: 65.7 µM
NCI-H23 lung
  GI50: 21.9 µM
  TGI: > 100 µM
KM12 colon
  GI50: 11 µM
  TGI: 40.3 µM
M14 melanoma
  GI50: 16.2 µM
  TGI: 45 µM
COLO 205 colon
  GI50: 3.57 µM
  TGI: 25.5 µM
PC-3 prostate
  GI50: 27.4 µM
  TGI: > 100 µM
NCI-H522 lung
  GI50: 26.7 µM
  TGI: > 100 µM
EKVX NSCLC
  GI50: 21 µM
  TGI: > 100 µM
MCF7 breast
  GI50: 8.67 µM
  TGI: > 100 µM
SK-MEL-5 melanoma
  GI50: 3.66 µM
  TGI: 20 µM
SW-620 colon
  GI50: 32.5 µM
  TGI: > 100 µM
HL-60(TB) leukemia
  GI50: 32.5 µM
  TGI: > 100 µM
UO-31 renal
  GI50: > 100 µM
  TGI: > 100 µM
SF-268 CNS
  GI50: 23.6 µM
  TGI: > 100 µM
NCI/ADR-RES ovarian
  GI50: > 100 µM
  TGI: > 100 µM
SK-MEL-2 melanoma
  GI50: 17.6 µM
  TGI: 43.9 µM
SK-OV-3 ovarian
  GI50: > 100 µM
  TGI: > 100 µM
OVCAR-5 ovarian
  GI50: > 100 µM
  TGI: > 100 µM
DU-145 prostate
  GI50: 53.9 µM
  TGI: > 100 µM
ACHN renal
  GI50: > 100 µM
  TGI: > 100 µM
HCT-15 colon
  GI50: > 100 µM
  TGI: > 100 µM
786-0 renal
  GI50: 43 µM
  TGI: > 100 µM
HCC-2998 colon
  GI50: 18.5 µM
  TGI: 64.3 µM
HOP-62 NSCLC
  GI50: 20.8 µM
  TGI: 78.1 µM
A498 renal
  GI50: 34.1 µM
  TGI: > 100 µM
CAKI-1 renal
  GI50: 64.5 µM
  TGI: > 100 µM
SR leukemia
  GI50: 13.5 µM
  TGI: > 100 µM
OVCAR-4 ovarian
  GI50: 24.7 µM
  TGI: > 100 µM
HT29 colon
  GI50: 33.8 µM
  TGI: > 100 µM
HCT-116 colon
  GI50: 30.8 µM
  TGI: > 100 µM
LOX IMVI melanoma
  GI50: 41.3 µM
  TGI: > 100 µM
U251 CNS
  GI50: 24 µM
  TGI: > 100 µM
CCRF-CEM leukemia
  GI50: 26.8 µM
  TGI: > 100 µM
RPMI-8226 leukemia
  GI50: 15.6 µM
  TGI: > 100 µM
MDA-MB-231 breast
  GI50: 31.6 µM
  TGI: > 100 µM
IGROV1 ovarian
  GI50: 22.8 µM
  TGI: > 100 µM
T-47D breast
  GI50: 15 µM
  TGI: 64.9 µM
